{"source": "patent US9150530B2", "about": "“Esters of 4, 9-dihydroxy-naphtho [2, 3-b] furans for disease therapies” (Zhoushan Haizhongzhou Xinsheng Pharmaceuticals Co., Ltd., priority 2011, dated 2015)", "key": {"[1]": {"assay": "Metabolism in biological fluid (human whole blood, cancer cell lysate, liver microsomes, mouse oral uptake), HPLC", "assay_type": "in vitro ADME", "conditions": "liver microsomes or mouse oral uptake system, 20 μM, 37° C.", "protocol": "Second, a major metabolite found after incubation of compound I, III, IV, VI or XIII in biological fluid, such as human whole blood, or cancer cell lysate, or liver microsomes, or mouse oral uptake system, is compound XII (FIG. 3). Similarly, a major metabolite found after incubation of compound V, VII or XIV in biological fluid is 2-(1-hydroxy-n-propyl)-naphtho[2,3-b]furan-4,9-dione (data not shown). Reduction of the position 2 substituent carbonyl group is part of quinone redox reaction as evidenced by the β-lapachone effect on the formation of compound XII in the compound XIII incubation mixture of human whole blood (part D of FIG. 3). The possible reaction mechanism is proposed as shown in scheme 7, in which the two electron reduction could be NQ01 catalyzed reduction or two successive cytochrome b5 reductase or p450 reductase catalyzed reaction. As substrate of these enzymes, β-lapachone could compete for the two electron or single electron reaction and thus reduced formation of the metabolism product.\nCrystalline or amorphous solid of compound was mixed with excipient and suspended in 0.5% carboxymethylcellulose (CMC) solution in a mortar. Then the mixture was orally administered into ICR mouse at the predetermined dosage. At the predetermined time point, blood was drawn from the mouse and stored in the vial containing heparin. The blood samples were centrifuged at 6,000 rpm for 10 min, and plasmas were separated. To each plasma sample, 9 times volume of acetonitrile/methyl trifluoromethanesulfonate (1000:1) or acetonitrile/concentrated HCl (1000:1) was added. The resulting mixtures were vortexed and incubated in dry ice for 30 minutes or in −20° C. freezer for 3 hours, then centrifuged, and supernatants were separated for HPLC analysis using gradient B.\nThe biological systems for in vitro metabolism study include: human whole blood stabilized with sodium citrate; cancer cell lysate (obtained using freeze-thaw method, 10 mg/ml in protein concentration for use); liver microsomes with NADPH generation system (prepared according to the protocol provided by iPhase Pharma, Beijing, China);\n10 mM of a compound of formula I or its analog or compound XIII in DMSO (however, compound VI was in DMF) was added into the biological system to a final concentration of 20 μM. The mixtures were incubated at 37° C. for predetermined time. To each sample, then 9 times volume of acetonitrile was added. The resulting mixtures were vortexed and incubated in dry ice for 30 minutes or in −20° C. freezer for 3 hours, then centrifuged, and supernatants were separated for HPLC analysis using gradient B."}, "DLD1 [2]": {"system": "DLD1", "assay": "Effect of NQ01 inhibitor (dicumarol) on biological activity, MTT, DLD1", "assay_type": "cell-based", "conditions": "DLD1 (significant NQ01 enzymatic activity); dicumarol 40 μM; 48 hr", "protocol": "(§1) Cell Viability Determination: Popular MTT method (Archives of Biochemistry and Biophysics, 1993, 303: 474-482) was used to screen the in vitro effects of the invented drugs. Briefly, 5000 to 10000 cells were inoculated per well in a 96-well plate. After overnight incubation, drug was added to the wells at final concentration of 10 μM, […], 2.5 μM, 1.25 μM, or 1 μM, 0.75 μM, 0.5 μM and 0.25 μM in complete culture medium. Each dose level covered 4 equivalent wells. After 48 hour incubation, one tenth volume of 5 mg/mL MTT (thiazolyl blue tetrazolium bromide, Sigma-Aldrich) stock solution was added, and incubation was continued for 2 hours. Then medium was removed and 100 μL of isopropanol solution comprising 86% isopropanol, 4% aqueous 1 N HCl and 10% aqueous SDS solution (10% in concentration) was added. The absorbance of each well at 570 nm wavelength was measured by a micro-plate reader after gentle shaking for 20 minutes. Drug concentrations of 50% cell viability (IC50) were calculated by LOGIT method.\n(§2) Effect of NQ01 Inhibitor (Dicumarol) on the Biological Activities of 2-acetyl-4,9-diacetoxy-naphtho[2,3-b]furan and Compound XIII (Part B and C of FIG. 4):MTT assay was used for this experiment. Same procedure as described in “Cell Viability Determination” section. […] The viability of cells at each well was read out after 48 hr incubation in cell culture incubator."}, "Panc-1": {"system": "Panc-1", "assay": "Effect of NQ01 inhibitor (dicumarol) on biological activity, MTT, Panc-1", "assay_type": "cell-based", "conditions": "Panc-1 (no significant NQ01 enzymatic activity); dicumarol 40 μM; 48 hr", "protocol": "as §1, §2"}, "DLD1 [3]": {"system": "DLD1", "assay": "Effect of drug incubation time on biological activity, MTT, DLD1", "assay_type": "cell-based", "conditions": "DLD1 (significant NQ01 activity)", "protocol": "as §1\n(§3) Effect of Drug Incubation Time on the Biological Activities of Compound XIII (FIG. 7): MTT assay was used for this experiment. Same procedure as described in “Cell Viability Determination” section. Briefly, cancer cells were inoculated on 96 well culture plates. […] The viability of cells at each well was read out using MTT method."}, "A549": {"system": "A549", "assay": "Effect of drug incubation time on biological activity, MTT, A549", "assay_type": "cell-based", "conditions": "A549 (significant NQ01 activity)", "protocol": "as §1, §3"}, "H1299": {"system": "H1299", "assay": "Effect of drug incubation time on biological activity, MTT, H1299", "assay_type": "cell-based", "conditions": "H1299 (no NQ01 activity)", "protocol": "as §1, §3"}, "Panc 1": {"system": "Panc 1", "assay": "Effect of drug incubation time on biological activity, MTT, Panc 1", "assay_type": "cell-based", "conditions": "Panc 1 (no NQ01 activity)", "protocol": "as §1, §3"}}}
{"molecule": "CC(=O)c1cc2c(o1)C(=O)c1ccccc1C2=O", "note": "[compound XIII, 2-acetyl-naphtho[2,3-b]furan-4,9-dione]", "values": [{"measurement": "Major metabolite found after incubation in biological fluid", "setting": "[1]", "value": "compound XII"}, {"measurement": "Dicumarol effect on anticancer activity", "setting": "DLD1 [2]", "value": "dicumarol attenuates anticancer activities"}, {"measurement": "Dicumarol effect on anticancer activity", "setting": "Panc-1", "value": "dicumarol showed little effect"}, {"measurement": "Cell growth inhibition, full time treatment versus 4 hour treatment", "setting": "DLD1 [3]", "value": "made no significant difference in cell growth inhibition"}, {"measurement": "Cell growth inhibition, full time treatment versus 4 hour treatment", "setting": "A549", "value": "made no significant difference in cell growth inhibition"}, {"measurement": "Cell growth inhibition, full time treatment versus 4 hour treatment", "setting": "H1299", "value": "full time treatment with compound XIII caused much higher cell growth inhibition than 4 hour treatment"}, {"measurement": "Cell growth inhibition, full time treatment versus 4 hour treatment", "setting": "Panc 1", "value": "full time treatment with compound XIII caused much higher cell growth inhibition than 4 hour treatment"}]}
